Experiments:
ICR male mice = test: Complete Freund's adjuvant-induced thermal hyperalgesia (hot plate); assay type: in vivo; details: hot plate 53 °C
Experimental: Specific pathogen-free outbred ICR male mice (6 to 8 weeks old, weighing 29 to 33 g) were obtained from the Animal Breeding Facility of the Branch of the Shemyakin-Ovchinnikov Institute of Bioorganic Chemistry of the Russian Academy of Sciences (Pushchino). The animals were acclimatized for 2 weeks before the experimental procedures, and were kept in two-corridor barrier rooms under a controlled environment: a temperature of 20 to 24 °C, a relative humidity of 30% to 60%, and a 12 h light cycle. The animals were housed in Type 3 standard polycarbonate cages (820 cm2) on bedding (LIGNOCEL BK 8/15, JRS, Germany), with ad libitum access to feed (SSNIFF V1534-300, Spezialdiaeten, GmbH) and filtered tap water. The mouse cages were also supplied with material for environmental enrichment, i.e., Mouse House (Techniplast, Italy). Sevanol or the vehicle was administered intravenously, intranasally and orally (30 min before testing).
The development of the inflammation and thermal hyperalgesia of the paw was induced by the injection of the oil/saline (1:1) CFA emulsion into the dorsal surface of the hind paw of the mice (20 μL/paw) 24 h before the measurement. Saline (20 μL) was injected into the control mice. The inflamed paw withdrawal latencies to thermal stimulation were measured on a hot plate device (Hot Plate Analgesia Meter, Columbus Instruments) with a set temperature of 53 ± 0.1 °C and a cut-off time of 60 s.
Figure 5 The analgesic and anti-inflammatory effects of sevanol following intravenous, intranasal and per os administration. The effect of sevanol on the acetic acid induced writhing (A–C) and on the mice withdrawal latency on a hot plate in the thermal hyperalgesia test after CFA injection (D–F) upon intravenous (A,D), intranasal (B,E) and oral (C,F) administration. […] The results are presented as the mean ± SD (n = 6–10). The p-values of the sevanol groups vs. the saline group are based on an analysis of variance and on Tukey’s test; * p < 0.05, ** p < 0.005, *** p < 0.001.

rat ASIC3 = molecular target: T1, rat ASIC3 (Rattus norvegicus, UniProt O35240); test: Two-electrode voltage clamp on X. laevis oocytes expressing rat ASIC3; assay type: cell-based
T1 construct: expressed in transfected cells; host or cells: Xenopus laevis oocytes (cRNA injection)
T1 sequence (O35240 1-533): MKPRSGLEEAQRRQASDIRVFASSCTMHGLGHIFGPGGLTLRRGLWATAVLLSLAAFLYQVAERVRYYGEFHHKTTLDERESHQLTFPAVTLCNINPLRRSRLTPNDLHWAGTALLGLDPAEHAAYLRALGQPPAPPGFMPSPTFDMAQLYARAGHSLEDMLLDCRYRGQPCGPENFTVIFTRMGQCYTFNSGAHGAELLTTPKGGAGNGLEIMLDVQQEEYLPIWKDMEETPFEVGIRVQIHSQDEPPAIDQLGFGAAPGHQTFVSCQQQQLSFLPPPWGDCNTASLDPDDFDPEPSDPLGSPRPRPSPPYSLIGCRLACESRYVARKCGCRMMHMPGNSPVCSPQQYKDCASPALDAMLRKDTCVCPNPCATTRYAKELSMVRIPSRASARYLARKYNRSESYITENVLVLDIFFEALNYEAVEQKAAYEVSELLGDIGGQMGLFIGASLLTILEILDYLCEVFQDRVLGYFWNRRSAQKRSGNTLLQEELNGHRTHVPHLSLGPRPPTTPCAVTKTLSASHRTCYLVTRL
Experimental: Testing the activity of synthetic sevanol (s706) (as a mixture of 75% of sevanol and 25% of isosevanol) and its analogues (s590, EA, and s788) was carried out by the standard two-electrode voltage clamp method on X. laevis oocytes expressing rat ASIC1a and ASIC3 channels. The activation of the channels was performed using a rapid change of the solution from conditioning pH 7.4 to a solution with pH 5.5. Sevanol and its two analogues, s590 and EA, inhibited ASIC1a and ASIC3 channels.
Oocytes were harvested from female frogs anaesthetized with tricaine methane sulfonate (MS222) (0.17% solution), and the surgery was performed in an ice bath to avoid heavy bleeding. Defolliculated stage IV and V cells were injected with 2.5 and 10 ng cRNA, synthesized from PCi plasmids containing the rat ASIC1a and rat ASIC3 isoforms, respectively, using the Nanoliter 2000 microinjection system (World Precision Instruments, USA). The injected oocytes were kept for 2–3 days at 17 to 19 °C, and then for up to 5 days at 15 °C in a ND96 medium containing (in mM) 96 NaCl, 2 KCl, 1.8 CaCl2, 1 MgCl2, and 5 HEPES titrated to pH 7.4 with NaOH supplemented with gentamycin (50 μg/mL). Two-electrode voltage clamp recordings were performed at a holding potential of −50 mV using a GeneClamp 500 amplifier (Axon Instruments), and the data were filtered at 20 Hz and digitized at 100 Hz by an AD converter L780 (LCard, Russia). Microelectrodes were filled with 3 M KCl. The conditioning bath solution was ND96; the pH was adjusted to 7.4. The activating test solution was constructed based on the ND-96 buffer, in which 5 mM HEPES was replaced with 10 mM MES and pH was adjusted to 5.5. A computer-controlled valve system was used to achieve a rapid solution exchange in the recording chamber. A four parameter logistic equation was used for the curve-fitting analysis: F(x) = ((a1 − a2)/(1 + (x/x0)n)) + a2, where x is the concentration of the compound; F(x) is the response value at a given concentration of the compound; a1 is the control response value (fixed at 100%); x0 is the IC50 value; n is the Hill coefficient (slope factor); and a2 is the response value at the maximal inhibition (% of control).
Figure 2 The inhibitory activity of sevanol (s706) and its analogues. Currents were elicited by a drop from pH 7.4 to 5.5; the holding potential was −50 mV; (A,C) are dose–response curves for s706, s590 and EA inhibitory effects on ASIC1a and ASIC3 channels, respectively; (B,D) are reciprocal IC50 values for s706, s590 and EA inhibitory effects on ASIC1a and ASIC3 channels, respectively. The data were fitted by the logistic equation. Each point is the mean ± SEM of 5–6 measurements. * p < 0.05, ** p < 0.005.

mice = system: mice; set-up: method as in PMID 30545037; details: parenteral, 0.01–10 mg/kg; cited from earlier work

With O=C(O)CC(C(=O)O)C(OC(=O)C1=Cc2cc(O)c(O)cc2C(c2ccc(O)c(O)c2)C1C(=O)OC(C(=O)O)C(CC(=O)O)C(=O)O)C(=O)O (stereo not shown) [sevanol] the “dose at which reversal of CFA-induced thermal hyperalgesia reached statistical significance, i.n.” value (ICR male mice; intranasal) was 1 mg/kg, the “dose at which reversal of CFA-induced thermal hyperalgesia reached statistical significance, i.v.” value (ICR male mice; intravenous) was 1 mg/kg and the “dose at which reversal of CFA-induced thermal hyperalgesia was statistically significant, p.o.” value (ICR male mice; oral) was 0.1 mg/kg. For the same compound, the IC50 (rat ASIC3; X. laevis oocytes, pH drop 7.4 to 5.5, holding potential −50 mV, mean ± SEM of 5–6, read-out: IC50, inhibition of ASIC3 current) was 175 ± 18 µM, the “maximal current block, ASIC3” value (rat ASIC3; pH 7.4 to 5.5, effect reversible) was 100% and the “effectiveness in inhibiting ASIC3 relative to ASIC1a” value (rat ASIC3; ratio of ASIC1a and ASIC3 inhibition) was 1.3 times. For the same compound, the “effect on CFA-induced thermal hyperalgesia” value (mice) was “significantly reversed”.

— article PMC7466040, “Sevanol and Its Analogues: Chemical Synthesis, Biological Effects and Molecular Docking” (Pharmaceuticals, 2020)
